ChEMBL document CHEMBL4665624, “Synthesis of 5-(4-(1H-phenanthro[9,10-d]imidazol-2-yl)benzylidene)thiazolidine-2,4-dione as promising DNA and serum albumin-binding agents and evaluation of antitumor activity” (Eur J Med Chem, 2019)

Columns and labels:
EKVX = assay: Antitumor activity against human EKVX cells assessed as cell growth inhibition at 10 uM incubated for 48 hrs by sulforhodamine B assay; format: functional; settings: read-out: GI
OVCAR-4 = assay: Antitumor activity against human OVCAR-4 cells assessed as cell growth inhibition at 10 uM incubated for 48 hrs by sulforhodamine B assay; format: functional; settings: read-out: GI
SNB-75 = assay: Antitumor activity against human SNB-75 cells assessed as cell growth inhibition at 10 uM incubated for 48 hrs by sulforhodamine B assay; format: functional; settings: read-out: GI
MDA-MB-435 = assay: Antitumor activity against human MDA-MB-435 cells assessed as cell growth inhibition at 10 uM incubated for 48 hrs by sulforhodamine B assay; format: functional; settings: read-out: GI
U-251 = assay: Antitumor activity against human U251 cells assessed as cell growth inhibition at 10 uM incubated for 48 hrs by sulforhodamine B assay; format: functional; settings: read-out: GI
IGROV-1 = assay: Antitumor activity against human IGROV1 cells assessed as cell growth inhibition at 10 uM incubated for 48 hrs by sulforhodamine B assay; format: functional; settings: read-out: GI
NCI-H522 = assay: Antitumor activity against human NCI-H522 cells assessed as cell growth inhibition at 10 uM incubated for 48 hrs by sulforhodamine B assay; format: functional; settings: read-out: GI
SF-268 = assay: Antitumor activity against human SF268 cells assessed as cell growth inhibition at 10 uM incubated for 48 hrs by sulforhodamine B assay; format: functional; settings: read-out: GI
Malme-3M = assay: Antitumor activity against human MALME-3M cells assessed as cell growth inhibition at 10 uM incubated for 48 hrs by sulforhodamine B assay; format: functional; settings: read-out: GI
SK-MEL-28 = assay: Antitumor activity against human SK-MEL-28 cells assessed as cell growth inhibition at 10 uM incubated for 48 hrs by sulforhodamine B assay; format: functional; settings: read-out: GI
SW-620 = assay: Antitumor activity against human SW620 cells assessed as cell growth inhibition at 10 uM incubated for 48 hrs by sulforhodamine B assay; settings: SW-620, 48 h, read-out: GI
SF-295 = assay: Antitumor activity against human SF295 cells assessed as cell growth inhibition at 10 uM incubated for 48 hrs by sulforhodamine B assay; format: functional; settings: read-out: GI
HCT-15 = assay: Antitumor activity against human HCT15 cells assessed as cell growth inhibition at 10 uM incubated for 48 hrs by sulforhodamine B assay; format: functional; settings: read-out: GI
BT-549 = assay: Antitumor activity against human BT-549 cells assessed as cell growth inhibition at 10 uM incubated for 48 hrs by sulforhodamine B assay; format: functional; settings: read-out: GI
786-0 = assay: Antitumor activity against human 786-0 cells assessed as cell growth inhibition at 10 uM incubated for 48 hrs by sulforhodamine B assay; format: functional; settings: read-out: GI
CCRF-CEM = assay: Antitumor activity against human CCRF-CEM cells assessed as cell growth inhibition at 10 uM incubated for 48 hrs by sulforhodamine B assay; format: functional; settings: read-out: GI
NCI-H460 = assay: Antitumor activity against human NCI-H460 assessed as cell growth inhibition at 10 uM incubated for 48 hrs by sulforhodamine B assay; format: functional; settings: read-out: GI
MDA-MB-468 = assay: Antitumor activity against human MDA-MB-468 cells assessed as cell growth inhibition at 10 uM incubated for 48 hrs by sulforhodamine B assay; format: functional; settings: read-out: GI
OVCAR-3 = assay: Antitumor activity against human OVCAR-3 cells assessed as cell growth inhibition at 10 uM incubated for 48 hrs by sulforhodamine B assay; format: functional; settings: read-out: GI
MOLT-4 = assay: Antitumor activity against human MOLT4 cells assessed as cell growth inhibition at 10 uM incubated for 48 hrs by sulforhodamine B assay; format: functional; settings: read-out: GI
UO-31 = assay: Antitumor activity against human UO-31 cells assessed as cell growth inhibition at 10 uM incubated for 48 hrs by sulforhodamine B assay; format: functional; settings: read-out: GI
SK-OV-3 = assay: Antitumor activity against human SK-OV-3 cells assessed as cell growth inhibition at 10 uM incubated for 48 hrs by sulforhodamine B assay; format: functional; settings: read-out: GI
M14 = assay: Antitumor activity against human M14 cells assessed as cell growth inhibition at 10 uM incubated for 48 hrs by sulforhodamine B assay; format: functional; settings: read-out: GI
K562 = assay: Antitumor activity against human K562 cells assessed as cell growth inhibition at 10 uM incubated for 48 hrs by sulforhodamine B assay; format: functional; settings: read-out: GI
SN12C = assay: Antitumor activity against human SN12C cells assessed as cell growth inhibition at 10 uM incubated for 48 hrs by sulforhodamine B assay; format: functional; settings: read-out: GI
LOX IMVI = assay: Antitumor activity against human LOX IMVI cells assessed as cell growth inhibition at 10 uM incubated for 48 hrs by sulforhodamine B assay; format: functional; settings: read-out: GI
COLO 205 = assay: Antitumor activity against human COLO205 cells assessed as cell growth inhibition at 10 uM incubated for 48 hrs by sulforhodamine B assay; format: functional; settings: read-out: GI
NCI-H226 = assay: Antitumor activity against human NCI-H226 assessed as cell growth inhibition at 10 uM incubated for 48 hrs by sulforhodamine B assay; format: functional; settings: read-out: GI
HOP-92 = assay: Antitumor activity against human HOP92 cells assessed as cell growth inhibition at 10 uM incubated for 48 hrs by sulforhodamine B assay; format: functional; settings: read-out: GI
NCI-H23 = assay: Antitumor activity against human NCI-H23 cells assessed as cell growth inhibition at 10 uM incubated for 48 hrs by sulforhodamine B assay; format: functional; settings: read-out: GI
MDA-MB-231 = assay: Antitumor activity against human MDA-MB-231/ATCC cells assessed as cell growth inhibition at 10 uM incubated for 48 hrs by sulforhodamine B assay; format: functional; settings: read-out: GI
HT-29 = assay: Antitumor activity against human HT-29 cells assessed as cell growth inhibition at 10 uM incubated for 48 hrs by sulforhodamine B assay; format: functional; settings: read-out: GI
RXF 393 = assay: Antitumor activity against human RXF 393 cells assessed as cell growth inhibition at 10 uM incubated for 48 hrs by sulforhodamine B assay; format: functional; settings: read-out: GI
Hs-578T = assay: Antitumor activity against human HS 578T cells assessed as cell growth inhibition at 10 uM incubated for 48 hrs by sulforhodamine B assay; format: functional; settings: read-out: GI
SNB-19 = assay: Antitumor activity against human SNB-19 cells assessed as cell growth inhibition at 10 uM incubated for 48 hrs by sulforhodamine B assay; format: functional; settings: read-out: GI
NCI/ADR-RES = assay: Antitumor activity against human NCI/ADR-RES cells assessed as cell growth inhibition at 10 uM incubated for 48 hrs by sulforhodamine B assay; format: functional; settings: read-out: GI
KM12 = assay: Antitumor activity against human KM12 cells assessed as cell growth inhibition at 10 uM incubated for 48 hrs by sulforhodamine B assay; format: functional; settings: read-out: GI
ACHN = assay: Antitumor activity against human ACHN cells assessed as cell growth inhibition at 10 uM incubated for 48 hrs by sulforhodamine B assay; format: functional; settings: read-out: GI
MCF7 = assay: Antitumor activity against human MCF7 cells assessed as cell growth inhibition at 10 uM incubated for 48 hrs by sulforhodamine B assay; format: functional; settings: read-out: GI
OVCAR-8 = assay: Antitumor activity against human OVCAR-8 cells assessed as cell growth inhibition at 10 uM incubated for 48 hrs by sulforhodamine B assay; format: functional; settings: read-out: GI
HCC 2998 = assay: Antitumor activity against human HCC2998 cells assessed as cell growth inhibition at 10 uM incubated for 48 hrs by sulforhodamine B assay; format: functional; settings: read-out: GI
HCT-116 = assay: Antitumor activity against human HCT116 cells assessed as cell growth inhibition at 10 uM incubated for 48 hrs by sulforhodamine B assay; format: functional; settings: read-out: GI
UACC-62 = assay: Antitumor activity against human UACC-62 cells assessed as cell growth inhibition at 10 uM incubated for 48 hrs by sulforhodamine B assay; format: functional; settings: read-out: GI
SR = assay: Antitumor activity against human SR cells assessed as cell growth inhibition at 10 uM incubated for 48 hrs by sulforhodamine B assay; format: functional; settings: read-out: GI
HL-60(TB) = assay: Antitumor activity against human HL-60(TB) cells assessed as cell growth inhibition at 10 uM incubated for 48 hrs by sulforhodamine B assay; format: functional; settings: read-out: GI
PC-3 = assay: Antitumor activity against human PC-3 cells assessed as cell growth inhibition at 10 uM incubated for 48 hrs by sulforhodamine B assay; format: functional; settings: read-out: GI
RPMI-8226 = assay: Antitumor activity against human RPMI8226 cells assessed as cell growth inhibition at 10 uM incubated for 48 hrs by sulforhodamine B assay; format: functional; settings: read-out: GI
A498 = assay: Antitumor activity against human A498 cells assessed as cell growth inhibition at 10 uM incubated for 48 hrs by sulforhodamine B assay; format: functional; settings: read-out: GI

O=C1c2ccccc2C(=O)c2c1ccc1[nH]c(-c3ccc(-c4nc5c6ccccc6c6ccccc6c5[nH]4)cc3)nc21
inhibition of growth at 10 µM (EKVX): 10.3%
inhibition of growth at 10 µM (OVCAR-4): 89%
inhibition of growth at 10 µM (SNB-75): 10%
inhibition of growth at 10 µM (MDA-MB-435): < 10%
inhibition of growth at 10 µM (U-251): < 10%
inhibition of growth at 10 µM (IGROV-1): < 10%
inhibition of growth at 10 µM (NCI-H522): < 10%
inhibition of growth at 10 µM (SF-268): < 10%
inhibition of growth at 10 µM (Malme-3M): < 10%
inhibition of growth at 10 µM (SK-MEL-28): < 10%
inhibition of growth at 10 µM (SW-620): < 10%
inhibition of growth at 10 µM (SF-295): < 10%
inhibition of growth at 10 µM (HCT-15): < 10%
inhibition of growth at 10 µM (BT-549): < 10%
inhibition of growth at 10 µM (786-0): < 10%
inhibition of growth at 10 µM (CCRF-CEM): < 10%
inhibition of growth at 10 µM (NCI-H460): < 10%
inhibition of growth at 10 µM (MDA-MB-468): < 10%
inhibition of growth at 10 µM (OVCAR-3): < 10%
inhibition of growth at 10 µM (MOLT-4): 12.4%
inhibition of growth at 10 µM (UO-31): 22.6%
inhibition of growth at 10 µM (SK-OV-3): < 10%
inhibition of growth at 10 µM (M14): < 10%
inhibition of growth at 10 µM (K562): < 10%
inhibition of growth at 10 µM (SN12C): < 10%
inhibition of growth at 10 µM (LOX IMVI): < 10%
inhibition of growth at 10 µM (COLO 205): < 10%
inhibition of growth at 10 µM (NCI-H226): < 10%
inhibition of growth at 10 µM (HOP-92): < 10%
inhibition of growth at 10 µM (NCI-H23): < 10%
inhibition of growth at 10 µM (MDA-MB-231): 14.4%
inhibition of growth at 10 µM (HT-29): < 10%
inhibition of growth at 10 µM (RXF 393): < 10%
inhibition of growth at 10 µM (Hs-578T): < 10%
inhibition of growth at 10 µM (SNB-19): < 10%
inhibition of growth at 10 µM (NCI/ADR-RES): < 10%
inhibition of growth at 10 µM (KM12): < 10%
inhibition of growth at 10 µM (ACHN): < 10%
inhibition of growth at 10 µM (MCF7): < 10%
inhibition of growth at 10 µM (OVCAR-8): < 10%
inhibition of growth at 10 µM (HCC 2998): < 10%
inhibition of growth at 10 µM (HCT-116): < 10%
inhibition of growth at 10 µM (UACC-62): < 10%
inhibition of growth at 10 µM (SR): 11.4%
inhibition of growth at 10 µM (HL-60(TB)): < 10%
inhibition of growth at 10 µM (PC-3): < 10%
inhibition of growth at 10 µM (RPMI-8226): 10.4%
inhibition of growth at 10 µM (A498): < 10%
